Reference: patent US20240228555A9, “ANTIMICROBIAL PEPTIDOMIMETICS” (Basilea Pharmaceutica International AG, Allschwil, priority 2020, published 2024)
Where a SMILES comes first, the peptide text is derived from it.

Legend:
[1] = test system: Escherichia coli ATCC 25922; settings: ATCC 25922
Experimental: (§1) Lyophilized peptides were weighed on a Microbalance (Mettler MT5) and dissolved in sterile water to a final concentration of 1 mg/mL. Stock solutions were kept at +4° C., light protected.
(§2) Colonies of the microorganisms were diluted in saline (0.85%, NaCl) and adjusted using a McFarland reader (bioMérieux SA, Marcy-l'Etoile, France) to 0.5 McFarland standard. Subsequently, the bacterial suspension was diluted in Mueller-Hinton II (MHII, cation adjusted) broth to give approximately 5×10^5 colony forming units (CFU/mL).
(§3) 10^6 colony forming units (CFU)/mL. Aliquots (90 μl) of inoculate were added to 10 μl of water+P-80 (Polysorbate 80, 0.002% final concentration) containing the peptide in serial two-fold dilutions at 10 fold final concentration. The following microorganisms were used to determine antibiotic selectivity of the peptides: Escherichia coli ATCC 25922, Escherichia coli MCR-1 Af 45 and Klebsiella pneumoniae SSI3010.

[2] = test system: Escherichia coli MCR-1 Af 45; settings: Mueller-Hinton broth II, no visible growth after 18-20 hours at 35° C.
Experimental: as §1, §2, §3

[3] = test system: Klebsiella pneumoniae SSI3010; settings: SSI3010
Experimental: as §1, §2, §3

[4] = test system: human red blood cells (hRBC); type: cell-based; settings: red cells of human, 1 h, 0.2 g/L
Experimental: as §1
The peptides were tested for their hemolytic activity against human red blood cells (hRBC). Fresh hRBC were washed three times with phosphate buffered saline (PBS) and centrifuged for 5 min at 3000×g. Compounds (200 μg/mL) were incubated with 20% hRBC (v/v) for 1 h at 37° C. and shaking at 300 rpm. A value of 0% and 100% cell lyses, respectively, was determined by incubation of hRBC in the presence of PBS and 2.5% Triton X-100 in H2O, respectively. The samples were centrifuged, the supernatants were 8-fold diluted in PBS buffer and the optical densities (OD) were measured at 540 nm. The 100% lyses value (OD540H2O) gave an OD540 of approximately 0.5-1.0.
Percent hemolysis was calculated as follows: (OD540peptide/OD540H2O)×100%.

SMILES | Escherichia coli ATCC 25922 MIC [1] [µg/mL] | Escherichia coli MCR-1 Af 45 MIC [2] [µg/mL] | Klebsiella pneumoniae SSI3010 MIC [3] [µg/mL] | Hemolysis at 0.2 g/L [4] [%]
CC[C@H](C)[C@H](NC(=O)[C@@H](NC(=O)[C@@H]1C[C@@H](O)CN1C(=O)[C@@H](N)C(C)C)[C@@H](C)CC)C(=O)N[C@@H](Cc1ccc(O)cc1)C(=O)N[C@@H]1C(=O)N[C@@H](CC(N)=O)C(=O)N[C@@H](CCCNC(=N)N)C(=O)N[C@@H](CCN)C(=O)N[C@@H](CO)C(=O)N[C@H](CCN)C(=O)N[C@@H](CCCCN)C(=O)N[C@H](C(=O)N[C@@H](CCN)C(=O)N[C@@H](CCN)C(=O)N[C@@H](Cc2ccc(O)cc2)C(=O)O)CSSC1(C)C [Example 76, Val-Hyp-Ile-Ile-Tyr-Pen-Asn-Arg-Dab-Ser-^DDab-Lys-Cys-Dab-Dab-Tyr] (HELM PEPTIDE1{V.[Hyp].I.I.Y.[Pen].N.R.[Dab].S.[NCC[C@@H](N[*:1])C(=O)[*:2]].K.C.[Dab].[Dab].Y}$PEPTIDE1,PEPTIDE1,6:R3-13:R3$$$V2.0) | 0.0625 | 0.0625 | 0.25 | <1
CC[C@H](C)[C@@H]1NC(=O)[C@@H](NC(=O)[C@H](Cc2ccc(O)cc2)NC(=O)[C@@H](NC(=O)[C@@H](NC(=O)[C@@H]2C[C@@H](O)CN2C(=O)[C@@H](N)C(C)C)[C@@H](C)CC)[C@@H](C)O)C(C)(C)SSC[C@@H](C(=O)N[C@@H](CCN)C(=O)N[C@@H](CCCNC(=N)N)C(=O)N[C@@H](Cc2ccc(O)cc2)C(=O)O)NC(=O)[C@H](CCCN)NC(=O)[C@@H](CCN)NC(=O)[C@H]([C@@H](C)O)NC(=O)[C@H](CCN)NC(=O)[C@H](CCCNC(=N)N)NC1=O [Example 123, Val-Hyp-Ile-Thr-Tyr-Pen-Ile-Arg-Dab-Thr-^DDab-Orn-Cys-Dab-Arg-Tyr] (HELM PEPTIDE1{V.[Hyp].I.T.Y.[Pen].I.R.[Dab].T.[NCC[C@@H](N[*:1])C(=O)[*:2]].[Orn].C.[Dab].R.Y}$PEPTIDE1,PEPTIDE1,6:R3-13:R3$$$V2.0) | 0.0625 | 0.125 | 0.125 | <1
CC[C@H](C)[C@H](NC(=O)[C@@H](NC(=O)[C@@H]1C[C@@H](O)CN1C(=O)[C@@H](N)C(C)C)[C@@H](C)CC)C(=O)N[C@@H](Cc1ccc(O)cc1)C(=O)N[C@@H]1C(=O)N[C@@H](CC(N)=O)C(=O)N[C@@H](CCCNC(=N)N)C(=O)N[C@@H](CCN)C(=O)N[C@@H]([C@@H](C)O)C(=O)N[C@H](CCN)C(=O)N[C@@H](CCCCN)C(=O)N[C@H](C(=O)N[C@@H](CCN)C(=O)N[C@@H](CCCN)C(=O)N[C@@H](Cc2ccc(O)cc2)C(=O)O)CSSC1(C)C [Example 85, Val-Hyp-Ile-Ile-Tyr-Pen-Asn-Arg-Dab-Thr-^DDab-Lys-Cys-Dab-Orn-Tyr] (HELM PEPTIDE1{V.[Hyp].I.I.Y.[Pen].N.R.[Dab].T.[NCC[C@@H](N[*:1])C(=O)[*:2]].K.C.[Dab].[Orn].Y}$PEPTIDE1,PEPTIDE1,6:R3-13:R3$$$V2.0) | 0.125 | 0.0625 | 0.25 | <1
CC[C@H](C)[C@H](NC(=O)[C@@H](NC(=O)[C@@H]1C[C@@H](O)CN1C(=O)[C@@H](N)C(C)C)[C@@H](C)CC)C(=O)N[C@@H](Cc1ccc(O)cc1)C(=O)N[C@@H]1C(=O)N[C@@H](CC(N)=O)C(=O)N[C@@H](CCCNC(=N)N)C(=O)N[C@@H](CCN)C(=O)N[C@@H]([C@@H](C)O)C(=O)N[C@H](CCN)C(=O)N[C@@H]([C@@H](C)CC)C(=O)N[C@H](C(=O)N[C@@H](CCN)C(=O)N[C@@H](CCCN)C(=O)N[C@@H](Cc2ccc(O)cc2)C(=O)O)CSSC1(C)C [Example 97, Val-Hyp-Ile-Ile-Tyr-Pen-Asn-Arg-Dab-Thr-^DDab-Ile-Cys-Dab-Orn-Tyr] (HELM PEPTIDE1{V.[Hyp].I.I.Y.[Pen].N.R.[Dab].T.[NCC[C@@H](N[*:1])C(=O)[*:2]].I.C.[Dab].[Orn].Y}$PEPTIDE1,PEPTIDE1,6:R3-13:R3$$$V2.0) | 0.25 | 0.25 | 0.5 | <1
CC[C@H](C)[C@H](NC(=O)[C@@H]1C[C@@H](O)CN1C(=O)[C@@H](N)C(C)C)C(=O)N[C@@H](CCN)C(=O)N[C@@H](Cc1ccc(O)cc1)C(=O)N[C@@H]1C(=O)N[C@@H](CC(N)=O)C(=O)N[C@@H](CCCNC(=N)N)C(=O)N[C@@H](CCN)C(=O)N[C@@H](CO)C(=O)N[C@H](CCN)C(=O)N[C@@H](CCCCN)C(=O)N[C@H](C(=O)N[C@@H](CCN)C(=O)N[C@@H](CCN)C(=O)N[C@@H](Cc2ccc(O)cc2)C(=O)O)CSSC1(C)C [Example 81, Val-Hyp-Ile-Dab-Tyr-Pen-Asn-Arg-Dab-Ser-^DDab-Lys-Cys-Dab-Dab-Tyr] (HELM PEPTIDE1{V.[Hyp].I.[Dab].Y.[Pen].N.R.[Dab].S.[NCC[C@@H](N[*:1])C(=O)[*:2]].K.C.[Dab].[Dab].Y}$PEPTIDE1,PEPTIDE1,6:R3-13:R3$$$V2.0) | 0.125 | 0.0625 | 0.5 | <1
CC[C@H](C)[C@H](NC(=O)[C@@H](NC(=O)[C@@H]1C[C@@H](N)CN1C(=O)[C@@H](N)C(C)C)[C@@H](C)CC)C(=O)N[C@@H](Cc1ccc(O)cc1)C(=O)N[C@@H]1C(=O)N[C@@H](CC(N)=O)C(=O)N[C@@H](CCCNC(=N)N)C(=O)N[C@@H](CCN)C(=O)N[C@@H]([C@@H](C)O)C(=O)N[C@H](CCN)C(=O)N[C@@H]([C@@H](C)CC)C(=O)N[C@H](C(=O)N[C@@H](CCN)C(=O)N[C@H](C(=O)N[C@@H](Cc2ccc(O)cc2)C(=O)O)[C@@H](C)O)CSSC1(C)C [Example 115, Val-Pro((4R)NH2)-Ile-Ile-Tyr-Pen-Asn-Arg-Dab-Thr-^DDab-Ile-Cys-Dab-Thr-Tyr] (HELM PEPTIDE1{V.[N[C@@H]1C[C@@H](C(=O)[*:2])N([*:1])C1].I.I.Y.[Pen].N.R.[Dab].T.[NCC[C@@H](N[*:1])C(=O)[*:2]].I.C.[Dab].T.Y}$PEPTIDE1,PEPTIDE1,6:R3-13:R3$$$V2.0) | 0.5 | 0.125 | 0.5 | <1
CC[C@H](C)[C@H](NC(=O)[C@@H](NC(=O)[C@@H]1C[C@@H](O)CN1C(=O)[C@@H](N)C(C)(C)C)[C@@H](C)CC)C(=O)N[C@@H](Cc1ccc(O)cc1)C(=O)N[C@@H]1C(=O)N[C@@H](CC(N)=O)C(=O)N[C@@H](CCCNC(=N)N)C(=O)N[C@@H](CCN)C(=O)N[C@@H]([C@@H](C)O)C(=O)N[C@H](CCN)C(=O)N[C@@H](CCCCN)C(=O)N[C@H](C(=O)N[C@@H](CCN)C(=O)N[C@@H](CCCNC(=N)N)C(=O)N[C@@H](Cc2ccc(O)cc2)C(=O)O)CSSC1(C)C [Example 114, tBuGly-Hyp-Ile-Ile-Tyr-Pen-Asn-Arg-Dab-Thr-^DDab-Lys-Cys-Dab-Arg-Tyr] (HELM PEPTIDE1{[CC(C)(C)[C@H](N)C(=O)[*:2]].[Hyp].I.I.Y.[Pen].N.R.[Dab].T.[NCC[C@@H](N[*:1])C(=O)[*:2]].K.C.[Dab].R.Y}$PEPTIDE1,PEPTIDE1,6:R3-13:R3$$$V2.0) | 0.125 | 0.125 | 0.5 | <1
CC[C@H](C)[C@H](NC(=O)[C@@H](NC(=O)[C@@H]1C[C@@H](O)CN1C(=O)[C@@H](N)C(C)C)[C@@H](C)CC)C(=O)N[C@@H](Cc1ccc(O)cc1)C(=O)N[C@@H]1C(=O)N[C@@H](CC(N)=O)C(=O)N[C@@H](CCCNC(=N)N)C(=O)N[C@@H](CCN)C(=O)N[C@@H]([C@@H](C)O)C(=O)N[C@H](CCN)C(=O)N[C@@H]([C@@H](C)CC)C(=O)N[C@H](C(=O)N[C@@H](CCN)C(=O)N[C@@H](CCN)C(=O)N[C@@H](Cc2ccc(O)cc2)C(=O)O)CSSC1(C)C [Example 83, Val-Hyp-Ile-Ile-Tyr-Pen-Asn-Arg-Dab-Thr-^DDab-Ile-Cys-Dab-Dab-Tyr] (HELM PEPTIDE1{V.[Hyp].I.I.Y.[Pen].N.R.[Dab].T.[NCC[C@@H](N[*:1])C(=O)[*:2]].I.C.[Dab].[Dab].Y}$PEPTIDE1,PEPTIDE1,6:R3-13:R3$$$V2.0) | 0.25 | 0.25 | 0.5 | <1
